Data published in ChEMBL document CHEMBL1137452, “Synthesis of disulfide esters of dialkylaminocarbothioic acid as potent, non-detergent spermicidal agents” (Bioorg Med Chem, 2007).
Values after ≈ are worked out from the molar mass of the structure shown. Active and inactive are the calls of the source. The rule behind the calls is not given here.

What was measured:
Homo sapiens [1] = species on record: Homo sapiens; assay: Spermicidal activity against human spermatozoa at 1.0% w/v; type: functional
Candida albicans [2] = assay: Antifungal activity against Candida albicans ATCC 10231 after 48 hrs by broth micro dilution technique; type: functional, organism-based; details: ATCC 10231, 48 h
Candida albicans [3] = assay: Antifungal activity against Candida albicans ATCC 66027 after 48 hrs by broth micro dilution technique; type: functional, organism-based; details: ATCC 66027, 48 h
Candida albicans [4] = assay: Antifungal activity against Candida albicans MTCC 183 after 48 hrs by broth micro dilution technique; type: functional, organism-based; details: MTCC 183, 48 h
Candida albicans [5] = assay: Antifungal activity against Candida albicans after 48 hrs by broth micro dilution technique; type: functional, organism-based
Candida albicans [6] = assay: Antifungal activity against Candida albicans ATCC 60193 after 48 hrs by broth micro dilution technique; type: functional, organism-based; details: ATCC 60193, 48 h
Candida albicans [7] = assay: Antifungal activity against Candida albicans MTCC 1346 after 48 hrs by broth micro dilution technique; type: functional, organism-based; details: MTCC 1346, 48 h
Homo sapiens [8] = species on record: Homo sapiens; assay: Spermicidal activity against human spermatozoa; type: functional
Candida parapsilosis = assay: Antifungal activity against Candida parapsilosis ATCC 22019 after 48 hrs by broth micro dilution technique; type: functional, organism-based; details: Lodderomyces parapsilosis, ATCC 22019, 48 h
Pichia kudriavzevii = assay: Antifungal activity against Candida krusei ATCC 6258 after 48 hrs by broth micro dilution technique; type: functional, organism-based; details: ATCC 6258, 48 h
Candida albicans [9] = assay: Antifungal activity against Candida albicans ATCC 10453 after 48 hrs by broth micro dilution technique; type: functional, organism-based; details: ATCC 10453, 48 h

| Structure (SMILES) | Activity (Homo sapiens [1]) | IC50 (Candida albicans [2]) [µg/mL] | MIC (Candida albicans [2]) [µg/mL] | IC50 (Candida albicans [3]) [µg/mL] | MIC (Candida albicans [3]) [µg/mL] | IC50 (Candida albicans [4]) [µg/mL] | MIC (Candida albicans [4]) [µg/mL] | IC50 (Candida albicans [5]) [µg/mL] | MIC (Candida albicans [5]) [µg/mL] | IC50 (Candida albicans [6]) [µg/mL] | MIC (Candida albicans [6]) [µg/mL] | IC50 (Candida albicans [7]) [µg/mL] | MIC (Candida albicans [7]) [µg/mL] | MEC (Homo sapiens [8]) [%w/v] | IC50 (Candida parapsilosis) [µg/mL] | MIC (Candida parapsilosis) [µg/mL] | IC50 (Pichia kudriavzevii) [µg/mL] | MIC (Pichia kudriavzevii) [µg/mL] | IC50 (Candida albicans [9]) [µg/mL] | MIC (Candida albicans [9]) [µg/mL] |
| --- | --- | --- | --- | --- | --- | --- | --- | --- | --- | --- | --- | --- | --- | --- | --- | --- | --- | --- | --- | --- |
| CCN(CC)C(=O)SCC(CN1CCOCC1)SSC(CSC(=O)N(CC)CC)CN1CCOCC1 (stereo unspecified) | inactive | – | – | – | – | – | – | – | – | – | – | – | – | – | – | – | – | – | – | – |
| O=C(SCC(CN1CCCCC1)SSC(CSC(=O)N1CCCC1)CN1CCCCC1)N1CCCC1 (racemic) | – | > 50 | > 50 | > 50 | > 50 | 42 (≈ 73.1 µM) | > 50 | > 50 | > 50 | > 50 | > 50 | > 50 | > 50 | 0.05 | 48 (≈ 83.5 µM) | 50 (≈ 87 µM) | 49 (≈ 85.2 µM) | 50 (≈ 87 µM) | > 50 | > 50 |
| CN1CCN(CC(CSC(=O)N2CCCCC2)SSC(CSC(=O)N2CCCCC2)CN2CCN(C)CC2)CC1 (racemic) | – | > 50 | 50 (≈ 79 µM) | 40 (≈ 63.2 µM) | > 50 | > 50 | 50 (≈ 79 µM) | 47 (≈ 74.2 µM) | 50 (≈ 79 µM) | 43 (≈ 67.9 µM) | > 50 | > 50 | 50 (≈ 79 µM) | 0.05 | 40 (≈ 63.2 µM) | 50 (≈ 79 µM) | 35 (≈ 55.3 µM) | 50 (≈ 79 µM) | 46 (≈ 72.7 µM) | > 50 |
| O=C(SCC(CN1CCCCC1)SSC(CSC(=O)N1CCCCC1)CN1CCCCC1)N1CCCCC1 (racemic) | – | > 50 | > 50 | > 50 | > 50 | > 50 | > 50 | > 50 | > 50 | > 50 | > 50 | > 50 | > 50 | 0.05 | > 50 | > 50 | > 50 | > 50 | > 50 | > 50 |
| O=C(SCC(CN1CCCC1)SSC(CSC(=O)N1CCCC1)CN1CCCC1)N1CCCC1 (racemic) | – | > 50 | > 50 | 42 (≈ 76.8 µM) | > 50 | 29 (≈ 53 µM) | 50 (≈ 91.4 µM) | 43 (≈ 78.6 µM) | > 50 | > 50 | > 50 | > 50 | > 50 | 0.002 | 31 (≈ 56.7 µM) | 50 (≈ 91.4 µM) | 33 (≈ 60.3 µM) | 50 (≈ 91.4 µM) | > 50 | > 50 |
| O=C(SCC(CN1CCCC1)SSC(CSC(=O)N1CCCCC1)CN1CCCC1)N1CCCCC1 (racemic) | – | 48 (≈ 83.5 µM) | 50 (≈ 87 µM) | 43 (≈ 74.8 µM) | > 50 | 32 (≈ 55.7 µM) | 50 (≈ 87 µM) | 47 (≈ 81.7 µM) | > 50 | 41 (≈ 71.3 µM) | > 50 | 48 (≈ 83.5 µM) | 50 (≈ 87 µM) | 0.002 | 48 (≈ 83.5 µM) | 50 (≈ 87 µM) | 30 (≈ 52.2 µM) | 50 (≈ 87 µM) | > 50 | > 50 |
| O=C(SCC(CN1C=CC=CC=C1)SSC(CSC(=O)N1CCCC1)CN1C=CC=CC=C1)N1CCCC1 (racemic) | – | > 50 | > 50 | > 50 | > 50 | 26 (≈ 44 µM) | 50 (≈ 84.6 µM) | 50 (≈ 84.6 µM) | > 50 | 42 (≈ 71.1 µM) | 50 (≈ 84.6 µM) | 50 (≈ 84.6 µM) | 50 (≈ 84.6 µM) | 0.05 | 42 (≈ 71.1 µM) | 50 (≈ 84.6 µM) | 32 (≈ 54.2 µM) | 50 (≈ 84.6 µM) | > 50 | > 50 |
| O=C(SCC(CN1C=CC=CC=C1)SSC(CSC(=O)N1CCOCC1)CN1C=CC=CC=C1)N1CCOCC1 (racemic) | – | > 50 | > 50 | > 50 | > 50 | 25 (≈ 40.1 µM) | 50 (≈ 80.3 µM) | > 50 | > 50 | 42 (≈ 67.4 µM) | 50 (≈ 80.3 µM) | 35 (≈ 56.2 µM) | 50 (≈ 80.3 µM) | 0.05 | 39 (≈ 62.6 µM) | 50 (≈ 80.3 µM) | 32 (≈ 51.4 µM) | 50 (≈ 80.3 µM) | > 50 | > 50 |
| CCN(C)C(=O)SCC(CN1CCCCC1)SSC(CSC(=O)N(C)CC)CN1CCCCC1 (racemic) | inactive | – | – | – | – | – | – | – | – | – | – | – | – | – | – | – | – | – | – | – |
| CCN(C)C(=O)SCC(CN1CCN(C)CC1)SSC(CSC(=O)N(C)CC)CN1CCN(C)CC1 (racemic) | inactive | – | – | – | – | – | – | – | – | – | – | – | – | – | – | – | – | – | – | – |
